Laboratory results reported in paper PMC3323742 (Biochemistry, 2012).

Target: 2-methylisoborneol synthase (MIBS), full length (Streptomyces coelicolor, UniProt Q9F1Y6, E193A)
Assay: GC-MS of pentane-extracted products
Type: biochemical
Details: 60 μM substrate, 5 μM enzyme, 10 mM MgCl2, pH 7.0, 30 °C, 12 h

Chain of 2-methylisoborneol synthase (MIBS), full length (Q9F1Y6 whole entry E193A): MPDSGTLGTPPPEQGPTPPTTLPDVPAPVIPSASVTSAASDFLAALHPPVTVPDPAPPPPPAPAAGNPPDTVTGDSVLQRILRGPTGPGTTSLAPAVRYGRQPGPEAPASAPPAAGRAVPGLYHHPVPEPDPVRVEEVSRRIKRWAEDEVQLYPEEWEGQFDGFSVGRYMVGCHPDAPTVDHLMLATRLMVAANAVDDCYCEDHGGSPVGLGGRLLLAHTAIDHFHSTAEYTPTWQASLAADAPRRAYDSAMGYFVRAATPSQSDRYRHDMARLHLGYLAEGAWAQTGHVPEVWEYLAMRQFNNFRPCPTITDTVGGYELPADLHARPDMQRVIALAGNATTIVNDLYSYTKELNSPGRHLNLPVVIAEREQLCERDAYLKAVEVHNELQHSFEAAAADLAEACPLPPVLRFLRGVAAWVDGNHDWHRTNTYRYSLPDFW

For `CC(C)=CCC/C(C)=C(\C)COP(=O)(O)OP(=O)(O)O` [2MGPP, 2-methylgeranyl diphosphate], the “GC-MS of pentane-extracted products” value was “overnight incubation of the E193A, E193L, and E193D mutants with 2MGPP”.
